Measured values from patent US4554289A, “OF4949” (Takara Shuzo Co., Ltd., priority 1982, dated 1985).

How the values were obtained:
[1] = test system: cellular immunity (delayed type hypersensitivity to sheep erythrocytes); test: Delayed type hypersensitivity (DTH) to sheep erythrocytes, hind paw edema (cellular immunity); format: in vivo, CDF1 strain female mice; details: for Thickness of Edema (Mean Value ± Standard Error): hind paw, 24 hours after challenge; for Potentiating Ratio to Control: control = 100
Protocol: Thus, sheep erythrocytes are used as antigen and 1×10^5 of them are subjected to intravenous injection to CDF1 strain female mice of 10 weeks of age (8 mice per group) and, immediately after the sensitization, a solution of OF4949 or derivatives thereof in a sterilized water is injected intraperitoneally with dosages of 5, 50 or 500 μg/kg and, after four days, 10^8 sheep erythrocytes are injected subcutaneously into left hind paws of the mice. After 24 hours, the degree of edema, i.e. thickness of the paws at that time, observed at the hind paws is measured using a slide calipers.

[2] = Neutral, acidic or basic properties; format: physicochemical
[3] = Solubilities; format: physicochemical
[4] = test system: ICR strains of mice; test: Acute toxicity test, 300 mg/kg intraperitoneally; format: in vivo
Protocol: The compounds of the present invention are also characterized by a very low toxicity, making their administration to humans and animals facile. Acute toxicity tests injecting 300 mg/kg intraperitoneally of representative compounds of the present invention to ICR strains of mice produced the toxicity results set forth in Table 9 below: […]

[5] = in methyl alcohol and ethyl alcohol
[6] = in n-propyl alcohol, n-butyl alcohol, acetone, ethyl acetate, chloroform, ether, benzene, and hexane
[7] = in water, alkaline water, and dimethyl sulfoxide

## COc1ccc2cc1Oc1ccc(cc1)CC(C(=O)O)NC(=O)C(C(O)C(N)=O)NC(=O)C(N)C2 (stereo not drawn) [OF4949-I]
[1]; 5 μg/kg intraperitoneally
  Thickness of Edema (Mean Value ± Standard Error): 9.5 ± 0.6 × 0.1 mm
  Potentiating Ratio to Control: 132%
[1]; 50 μg/kg intraperitoneally
  Thickness of Edema (Mean Value ± Standard Error): 11.7 ± 1.5 × 0.1 mm
  Potentiating Ratio to Control: 163%
[1]; 500 μg/kg intraperitoneally
  Thickness of Edema (Mean Value ± Standard Error): 9.1 ± 0.5 × 0.1 mm
  Potentiating Ratio to Control: 126%
[2]
  Neutral, acidic or basic properties: amphoteric
[3]; [5]
  Solubility: hardly soluble
[3]; [6]
  Solubility: insoluble
[3]; [7]
  Solubility: soluble
[4]
  Acute toxicity test result: No toxicity is observed

## COc1ccc2cc1Oc1ccc(cc1)CC(C(N)=O)NC(=O)C(C(O)C(N)=O)NC(=O)C(N)C2 (stereo not drawn) [Compound 17]
[1]; 5 μg/kg intraperitoneally
  Thickness of Edema (Mean Value ± Standard Error): 8.8 ± 0.7 × 0.1 mm
  Potentiating Ratio to Control: 126%
[1]; 50 μg/kg intraperitoneally
  Thickness of Edema (Mean Value ± Standard Error): 8.4 ± 0.7 × 0.1 mm
  Potentiating Ratio to Control: 120%
[1]; 500 μg/kg intraperitoneally
  Thickness of Edema (Mean Value ± Standard Error): 8.5 ± 0.7 × 0.1 mm
  Potentiating Ratio to Control: 121%

## COc1ccc2cc1Oc1ccc(cc1)CC(C(=O)O)NC(=O)C(C(O)C(=O)O)NC(=O)C(N)C2 (stereo not drawn) [Compound 18]
[1]; 5 μg/kg intraperitoneally
  Thickness of Edema (Mean Value ± Standard Error): 8.2 ± 0.7 × 0.1 mm
  Potentiating Ratio to Control: 117%
[1]; 50 μg/kg intraperitoneally
  Thickness of Edema (Mean Value ± Standard Error): 8.5 ± 0.7 × 0.1 mm
  Potentiating Ratio to Control: 121%
[1]; 500 μg/kg intraperitoneally
  Thickness of Edema (Mean Value ± Standard Error): 7.5 ± 0.6 × 0.1 mm
  Potentiating Ratio to Control: 107%

## NC(=O)C(O)C1NC(=O)C(N)Cc2ccc(O)c(c2)Oc2ccc(cc2)CC(C(=O)O)NC1=O (stereo not drawn) [OF4949-II]
[1]; 5 μg/kg intraperitoneally
  Thickness of Edema (Mean Value ± Standard Error): 11.7 ± 1.9 × 0.1 mm
  Potentiating Ratio to Control: 127%
[1]; 50 μg/kg intraperitoneally
  Thickness of Edema (Mean Value ± Standard Error): 13.5 ± 1.2 × 0.1 mm
  Potentiating Ratio to Control: 147%
[1]; 500 μg/kg intraperitoneally
  Thickness of Edema (Mean Value ± Standard Error): 11.4 ± 2.6 × 0.1 mm
  Potentiating Ratio to Control: 124%
[2]
  Neutral, acidic or basic properties: amphoteric
[3]; [5]
  Solubility: hardly soluble
[3]; [6]
  Solubility: insoluble
[3]; [7]
  Solubility: soluble

## COc1ccc2cc1Oc1ccc(cc1)CC(CO)NC(=O)C(C(O)CO)NC(=O)C(N)C2 (stereo not drawn) [Compound 21]
[1]; 5 μg/kg intraperitoneally
  Thickness of Edema (Mean Value ± Standard Error): 7.8 ± 0.8 × 0.1 mm
  Potentiating Ratio to Control: 111%
[1]; 50 μg/kg intraperitoneally
  Thickness of Edema (Mean Value ± Standard Error): 7.8 ± 0.7 × 0.1 mm
  Potentiating Ratio to Control: 111%
[1]; 500 μg/kg intraperitoneally
  Thickness of Edema (Mean Value ± Standard Error): 8.7 ± 0.8 × 0.1 mm
  Potentiating Ratio to Control: 124%

## NC1Cc2ccc(O)c(c2)Oc2ccc(cc2)CC(C(=O)O)NC(=O)C(C(O)C(=O)O)NC1=O (stereo not drawn) [Compound 2]
[1]; 5 μg/kg intraperitoneally
  Thickness of Edema (Mean Value ± Standard Error): 9.3 ± 1.2 × 0.1 mm
  Potentiating Ratio to Control: 116%
[1]; 50 μg/kg intraperitoneally
  Thickness of Edema (Mean Value ± Standard Error): 9.1 ± 1.1 × 0.1 mm
  Potentiating Ratio to Control: 114%
[1]; 500 μg/kg intraperitoneally
  Thickness of Edema (Mean Value ± Standard Error): 10.2 ± 0.9 × 0.1 mm
  Potentiating Ratio to Control: 128%
